{
  "source": "paper PMC2628638",
  "about": "“Catalytic inhibition of topoisomerase II by a novel rationally designed ATP-competitive purine analogue” (BMC Chemical Biology, 2009)",
  "format_in_all_cases": "cell-based",
  "key": {"[1]": {"system": "HL-60 cells", "experiment": "Chromosome segregation assay (chromosome spreads)", "experimental": "HL-60 cells were treated overnight for 16 hours with 2 μg/ml aphidicolin (Sigma-Aldrich corporation, St. Louis, MO) and released by washing twice PBS and resuspending into fresh medium. After 6 hours release the cells were treated with 1 mM caffeine (Lancaster Synthesis, Heysham, Lancashire, UK) and with catalytic topoisomerase II inhibitor or vehicle for 2 hours. Cells were washed once with PBS and incubated with 56 mM KCl hypotonic solution for 30 minutes. Cells were pelleted and carefully resuspended in Carnoy's fixative. Cells were pelleted as above, supernatant was removed and cells were resuspended again in 2 ml fixative. Chromosome spreads were prepared by dropping 50 μl cell suspension onto microscopy slides. The slides were allowed to dry and then stained for 10 seconds in Hoechst 33342 dye (Molecular Probes, Eugene, Oregon, prepared 1:1000 in PBS from 10 mg/ml stock). After drying, mounting media (Vectashield®, Vector Laboratories, Burlingame, CA) and a cover slip were added. Samples were observed using an immersion oil lens (100 ×, Nikon, Plan Apo VC) by fluorescence microscopy (Nikon Eclipse, E600) in the DAPI channel. Images were acquired using analySIS® software (Soft Imaging System GmbH, Münster, Germany). Representative images were converted to grayscale, inverted and contrast adjusted with Adobe Photoshop. Mitotic cells were categorized as described."}, "[2]": {"system": "HL-60 cells", "experiment": "Proliferation assay over 72 hours", "conditions": "read-out: half-maximal growth inhibitory concentration (GI50)"}, "[3]": {"system": "HeLa T-Rex cells", "experiment": "Gamma-H2AX In-Cell Western assay (doxorubicin-induced DNA damage)", "conditions": "30 minutes pretreatment, then 1 μM doxorubicin for 2 hours; read-out: IC50, suppression of doxorubicin-induced γH2AX signal", "experimental": "In-Cell Western analysis was carried out as follows. HeLa T-Rex cells were seeded at the cell density of 15 × 10^3 cells per well in black 96-well plates (Greiner Bio-one Vacuette, St Gallen, Switzerland). The day post-seeding, cells were pretreated with increasing concentrations of either ICRF-193, QAP 1 or vehicle (DMSO) for 30 minutes followed by a 2 hours treatment with 1 μM of doxorubicin, or were only treated with the same concentrations of ICRF-193, QAP 1 or vehicle (DMSO) for 2 hours. Treatments were done in triplicate. […] Finally, cells were washed 4 times with 50 μl per well of PBS containing 0.1% Tween-20 for 3 minutes, liquid was removed and plates were kept at 4°C until reading. γH2AX signals were read using the LI-COR Odyssey Infrared Imager with the Odyssey v1.1 software using the 800 nm channel. Blank values correspond to non-specific γH2AX signal detected in wells without primary antibody staining. […] The resulting values for each sample were normalized to the DNA quantity by measuring the corresponding TO-PRO-3 iodide signals. The TO-PRO-3 iodine signals were detected by using the 700 nm channel. The percentage of γH2AX signal was determined for each concentration of ICRF193 and QAP 1 with or without doxorubicin treatment by setting the value for the treatment with vehicle and 1 μM doxorubicin to 100%. […]"}, "[4]": {"system": "HL-60 cells", "experiment": "Gamma-H2AX Western blot (doxorubicin-induced DNA damage)", "conditions": "both drugs 5 μM, 30 minutes pretreatment, doxorubicin 2 hours", "experimental": "Histone extracts of HL-60 or HeLa T-Rex cells for Western blot analysis were prepared as follows: Following treatments, medium was removed and cells were collected/washed with PBS. Cells were centrifuged for 5 minutes at 1500 rpm and 4°C and the cell pellet was resuspended in 300 μl of ice-cold hypotonic buffer (see above). Cells were transferred in a 1.5 ml Eppendorf tube and incubated for 15 minutes on ice. Thereafter, NP-40 was added to the cells to a final concentration of 0.6% (v/v) and cells were disrupted by pumping 10–15 times through a 1 ml syringe connected to a 23-gauge needle. The extract was centrifuged for 10 minutes at 8000 rpm and 4°C. The supernatant (cytoplasmic fraction) was removed and the nuclear pellet was washed once with 500 μl of ice-cold hypotonic buffer for 4 minutes at 8000 rpm. Nuclear proteins were extracted by addition of 22 μl sample buffer and boiling for 3 minutes. Samples were resolved by 15% SDS-PAGE following transfer to PVDF membrane. After blocking, membranes were incubated either with anti-γH2AX (clone JBW301, 05–636, Upstate, Charlottesville, VA, diluted 1:1000 in PBS containing 0.1% Tween 20 and 5% milk) or histone H3 (catalog number 9715, Cell Signaling Technologies Inc., Beverly, MA, diluted 1:1000 in TBS containing 0.1% Tween 20 and 5% milk) antibodies overnight at 4°C."}, "[5]": {"system": "HCC1937 BRCA1 mutant and HCC1937 BRCA1 reconstituted cells", "experiment": "Clonogenic growth assay (WST-1, colony counting)", "conditions": "continuous treatment for 9 days, WST-1 and colony numbers", "experimental": "HCC1937 BRCA1 mutant and HCC1937 BRCA1 reconstituted breast ductal carcinoma cells were cultured in RPMI-1640 medium supplemented with 10% fetal calf serum, 2 mM L-glutamine, 1 mM sodium pyruvate, 4.5 g/l glucose and 1% (v/v) penicillin/streptomycin. Status of BRCA1 was corroborated by immunoprecipitation using 50 μg nuclear extracts and 1 μg mouse monoclonal antibody MS110 (ab16780, Abcam Inc., Cambridge, MA), which is directed towards the amino-terminus of the protein. Blots were probed with BRCA1 carboxy-terminal specific mouse monoclonal antibody D9 (sc-6954, Santa Cruz Biotechnologies, Santa Cruz, CA) and, following stripping, re-probed with antibody MS110. For assays, 5000 cells in 3 ml medium were seeded per well of 6 well plates in duplicates. The day after, vehicle (DMSO) or compounds were added. After one week medium was exchanged and vehicle or compounds were re-added for an additional two days. To assess proliferation the medium in each well was replaced with 1 ml medium containing 100 μl WST-1 reagent and incubation for 20 minutes at 37°C. Of each sample 110 μl supernatant were transferred into a 96 well plate and the OD was read at 450 nm (filter at 630 nm) on a SpectraMax Plus microtiter plate reader using SoftMax Pro software (Molecular Devices). For background correction, the blank value consisted of 100 μl medium containing 10 μl WST-1. Thereafter, colonies were stained by removing medium, washing cells once with PBS and incubation with 1 ml crystal violet solution for 30 minutes at room temperature. Cells were washed twice with PBS and colonies were counted using an Artec Counter (Model 880, Artec, Dyntatech Laboratories Inc.) with diameter cut-off set to 0.2 mm. Data were expressed as growth or colony numbers relative to vehicle control treatments (100%)."}},
  "data": [
    {"substance": "ICRF-193 [reference compound]", "values": [
      {"measurement": "chromosome segregation at mitosis", "setting": "[1]; 400 nM with 1 mM caffeine for 2 hours after 6 hours release", "value": "anaphases looked abnormal"},
      {"measurement": "chromosome segregation at mitosis", "setting": "[1]; 1 μM with caffeine for 2 hours after 6 hours release from aphidicolin", "value": "no normal anaphases or telophases could be observed"},
      {"measurement": "GI50", "setting": "[2]", "value": 250, "unit": "nM"},
      {"measurement": "IC50", "setting": "[3]", "value": "~200", "unit": "nM"},
      {"measurement": "effect of pretreatment on doxorubicin-induced γH2AX (Western blot)", "setting": "[4]", "value": "suppressed"},
      {"measurement": "sensitivity of BRCA1 mutant versus BRCA1 reconstituted HCC1937 cells", "setting": "[5]", "value": "somewhat more sensitive"}
    ]}
  ]
}
